From the PolyMetriX glass transition set
± gives the standard deviation of the reports.

Molecule `*Nc1cccc2c(NC(=O)Nc3cc(NC(*)=O)cc(C(=O)Nc4ccc5c(c4)C(=O)c4ccccc4C5=O)c3)cccc12` (repeat unit) has a glass transition temperature of 178.00 °C.
Work on `*O[Si](C)(C)C#C[Si](C)(C)C#C[Si](C)(C)C#C[Si](C)(C)C#C[Si](C)(C)C#C[Si](*)(C)C` (repeat unit) yielded a glass transition temperature of -16.10 °C.
`*Oc1ccc(-c2ccc(OC(=O)c3cc(OCCCCCC)c(C(*)=O)cc3OCCCCCC)cc2)cc1` (repeat unit) gave a glass transition temperature of 113.00 °C.
With `*CC(OC(=O)OCC)C(COC(=O)O*)OC(=O)OCC` (repeat unit) the glass transition temperature was 49.80 °C.
In the case of `*c1ccc2c(c1)C(=O)N(c1cc(N3C(=O)c4ccc(C(*)(C(F)(F)F)C(F)(F)F)cc4C3=O)c(O)cc1O)C2=O` (repeat unit), the glass transition temperature is reported as 324.00 °C.
`*CC(*)OC(=O)C(C)(CC)C(C)(C)C` (repeat unit) showed a glass transition temperature of 120.00 °C.
Molecule `*C(=O)c1ccc2c(c1)C(=O)N(c1ccc(CP(=O)(OCCCl)OCCCl)c(N3C(=O)c4ccc(*)cc4C3=O)c1)C2=O` (repeat unit) has a glass transition temperature of 261.00 °C.
`*CCCCCCNC(=O)CCc1ccc(C(C)CC(=O)N*)cc1` (repeat unit) showed a glass transition temperature of 77.00 °C.
In the case of `*CC(CO*)(CS(=O)(=O)CCCCC)CS(=O)(=O)CCCCC` (repeat unit), the glass transition temperature is reported as 56.00 °C.
Molecule `*CC(CCCCCCCCCCCCCCCC)C(CCCCCCCCCCCCCCCC)COC(=O)c1ccc(C(=O)O*)cc1` (repeat unit) has a glass transition temperature of -26.00 °C.
Work on `*CC(*)C=C` (repeat unit) [Poly(1,2-butadiene)] yielded a glass transition temperature of -6.08 ± 1.3 °C.
For `*c1cn(*)c2ccccc12` (repeat unit), the glass transition temperature was 65.00 °C.
`*CC(*)(C)C(=O)OCC=C` (repeat unit) showed a glass transition temperature of 94.00 °C.
With `*Oc1ccc(/N=N/c2ccc(Oc3ccc(C(C)(C)c4ccc(*)cc4)cc3)cc2)cc1` (repeat unit) the glass transition temperature was 175.00 °C.
`*Nc1cc(NC(=O)c2cc(NC(=O)C(C(C)CC)N3C(=O)c4ccccc4C3=O)cc(C(*)=O)c2)ccc1C` (repeat unit) showed a glass transition temperature of 166.00 °C.
Molecule `*OC(COC(=O)c1ccc(C(*)=O)cc1)COc1ccc(/N=N/c2ccc(C#N)cc2)cc1` (repeat unit) has a glass transition temperature of 122.00 °C.
`*Oc1ccc(-c2ccc(Oc3ccc(C(=O)c4cccc(C(=O)c5ccc(*)cc5)c4)cc3)cc2)cc1` (repeat unit) gave a glass transition temperature of 159.00 °C.
Work on `*Oc1ccccc1S(=O)(=O)c1ccc(*)cc1` (repeat unit) yielded a glass transition temperature of 221.00 °C.
Work on `*c1ccc(Oc2ccc(C(=O)c3cccc(C(=O)c4ccc(Oc5ccc(N6C(=O)c7ccc(-c8ccc9c(c8)C(=O)N(*)C9=O)cc7C6=O)cc5)cc4)c3)cc2)cc1` (repeat unit) yielded a glass transition temperature of 222.00 °C.
Work on `*CC(*)c1ccc(Oc2ccccc2)cc1` (repeat unit) yielded a glass transition temperature of 85.00 °C.
With `*CC(COc1ccc(C(C)(C)c2ccc(O*)cc2)cc1)OC(=O)CC` (repeat unit) the glass transition temperature was 60.00 °C.
Work on `*Oc1ccc(C2(c3ccc(OC(=O)CCC(*)=O)cc3)c3cc(OC)ccc3-c3ccc([N+](=O)[O-])cc32)cc1` (repeat unit) yielded a glass transition temperature of 230.00 °C.
With `*Oc1c(OC)cc(*)cc1OC` (repeat unit) the glass transition temperature was 174.10 °C.
For `*O[Si](C)(C)c1cccc2c1ccc1c([Si](*)(C)C)cccc12` (repeat unit), the glass transition temperature was 100.00 °C.
In the case of `*c1ccc(C(c2ccccc2)c2ccc(N3C(=O)c4ccc(S(=O)(=O)c5ccc6c(c5)C(=O)N(*)C6=O)cc4C3=O)cc2)cc1` (repeat unit), the glass transition temperature is reported as 305.00 °C.
For `*CCCCOCCCCOCCCCOC(=O)c1ccc(/N=C/c2cc(OCCCCCC)c(/C=C/c3cc(OCCCCCC)c(/C=C/c4cc(OCCCCCC)c(/C=N/c5ccc(C(=O)O*)cc5)cc4OCCCCCC)cc3OCCCCCC)cc2OCCCCCC)cc1` (repeat unit), the glass transition temperature was 14.30 °C.
`*Cc1ccccc1[Si](*)(C)C` (repeat unit) showed a glass transition temperature of 48.00 °C.
Work on `*OC(F)(C(=O)[N]([Li])S(=O)(=O)C(F)(F)C(*)(F)F)C(F)(F)F` (repeat unit) yielded a glass transition temperature of 67.00 °C.
`*C(=O)c1ccc2c(c1)C(=O)N(c1cccc(P(=O)(c3ccc(C(F)(F)F)cc3)c3cccc(N4C(=O)c5ccc(*)cc5C4=O)c3)c1)C2=O` (repeat unit) showed a glass transition temperature of 264.00 °C.
With `*CC(*)(C)C(=O)OCc1ccc(Cl)cc1` (repeat unit) the glass transition temperature was 43.60 °C.
`*CCCCCCCCCCN/C(=N/*)c1ccccc1` (repeat unit) showed a glass transition temperature of 10.00 °C.
For `*c1ccc2c(c1)C(=O)N(c1cc(C(c3ccc(OC(C)=O)c(N4C(=O)c5ccc(C(*)(C(F)(F)F)C(F)(F)F)cc5C4=O)c3)(C(F)(F)F)C(F)(F)F)ccc1OC(C)=O)C2=O` (repeat unit), the glass transition temperature was 266.50 °C.
For `*C/C=C/C[Si](*)(C)CCCOc1ccc(-c2ccccc2)cc1` (repeat unit), the glass transition temperature was 10.00 °C.
Molecule `*CCOC(=O)Nc1ccc(CCCCc2ccc(NC(=O)O*)cc2)cc1` (repeat unit) has a glass transition temperature of 105.70 °C.
Molecule `*c1c(C)cc(C)c(N2C(=O)c3ccc(S(=O)(=O)c4ccc5c(c4)C(=O)N(*)C5=O)cc3C2=O)c1C` (repeat unit) has a glass transition temperature of 418.00 °C.
`*c1ccc(-c2ccc(-c3ccc(-c4cc(-c5ccccc5)c5cc(-c6ccc7nc(*)cc(-c8ccccc8)c7c6)ccc5n4)cc3)cc2)cc1` (repeat unit) gave a glass transition temperature of 360.00 °C.
For `*Nc1ccc(-c2ccc(NC(=O)c3ccc(C(*)=O)cc3)cc2)cc1` (repeat unit), the glass transition temperature was 340.00 °C.
Work on `*/C=C/c1ccc(OC(=O)CCCCCCCCC(=O)Oc2ccc(-c3nnc(*)s3)cc2)cc1` (repeat unit) yielded a glass transition temperature of 30.00 °C.
Work on `*/C=C/C(*)(C)C` (repeat unit) yielded a glass transition temperature of -9.00 °C.
In the case of `*c1ccc(-c2ccc(N3C(=O)c4ccc(Oc5ccc6c(c5)C(=O)N(*)C6=O)cc4C3=O)cc2)cc1` (repeat unit), the glass transition temperature is reported as 286.00 °C.
Molecule `*CC(*)c1ccc(COCCC(F)(F)C(F)(F)C(F)(F)C(F)(F)F)cc1` (repeat unit) has a glass transition temperature of 13.00 °C.
`*Oc1ccc(S(=O)(=O)c2ccc(Oc3c(C)cc(C(C)(C)c4cc(C)c(*)c(C)c4)cc3C)cc2)cc1` (repeat unit) showed a glass transition temperature of 231.30 °C.
With `*CCOC(=O)/C=C/C(=O)O*` (repeat unit) the glass transition temperature was -10.00 °C.
With `*=Nc1ccc(Oc2ccc(C(c3ccc(Oc4ccc(/N=C5/OC(=O)c6cc7c(cc65)C(=*)OC7=O)cc4)cc3)(C(F)(F)F)C(F)(F)F)cc2)cc1` (repeat unit) the glass transition temperature was 287.00 °C.
Work on `*Oc1ccc2cc(Oc3ccc4c(=O)n5c6cc(-c7ccc8c(c7)nc7c9ccc(*)c%10cccc(c(=O)n87)c%109)ccc6nc5c5cccc3c45)ccc2c1` (repeat unit) yielded a glass transition temperature of 413.00 °C.
With `*CC(*)OC(=O)CC` (repeat unit) [Poly(vinyl propionate) ] the glass transition temperature was 10 ± 2 °C.
In the case of `*c1ccc(/C=N/c2cccc(/N=C/c3ccc(-c4ccc(*)s4)cc3)c2)cc1` (repeat unit), the glass transition temperature is reported as 150.00 °C.
With `*c1cc(CC(=O)OCCCCCCOc2ccc(/N=N/c3ccc(C#N)cc3)cc2)c(*)s1` (repeat unit) the glass transition temperature was 64.00 °C.
For `*CCCP(=O)(CCCNC(=O)CCCCC(=O)N*)c1ccccc1` (repeat unit), the glass transition temperature was 55.00 °C.
In the case of `*CC(*)(C)C(=O)OCC(F)(F)C(F)F` (repeat unit) [Poly(2,2,3,3-tetrafluoropropyl methacrylate)], the glass transition temperature is reported as 75.42 ± 6.5 °C.
Work on `*CC(*)(C)C(=O)Oc1ccc(C#N)cc1` (repeat unit) yielded a glass transition temperature of 155.00 °C.
`*Sc1ccc(C(=O)CNCCCCCCCCNCC(=O)c2ccc(*)cc2)cc1` (repeat unit) gave a glass transition temperature of 231.00 °C.
With `*c1ccc(NC(=O)c2cccc(C(=O)Nc3ccc(-n4c(=O)c5cc6c(=O)n(*)c(=O)c6cc5c4=O)cc3)c2)cc1` (repeat unit) the glass transition temperature was 296.00 °C.
Molecule `*CC(*)c1ccc(C(=O)C(F)(F)F)cc1` (repeat unit) has a glass transition temperature of 95.00 °C.
Work on `*c1ccc(Sc2ccc(S(*)(=O)=O)cc2)cc1` (repeat unit) yielded a glass transition temperature of 215.00 °C.
For `*c1ccc(Oc2ccc(C(c3ccc(Oc4ccc(-c5nnc(*)n5-c5cccc(C(F)(F)F)c5)cc4)cc3)(C(F)(F)F)C(F)(F)F)cc2)cc1` (repeat unit), the glass transition temperature was 185.00 °C.
For `*Oc1ccc(CC(NC(=O)CCc2ccc(OC(=O)CCCCCCCCC(*)=O)cc2)C(=O)OC)cc1` (repeat unit), the glass transition temperature was 47.00 °C.
`*Oc1ccc(NC(=O)c2cccc(C(=O)Nc3ccc(Oc4ccc(C(c5ccc(*)cc5)(C(F)(F)F)C(F)(F)F)cc4)cc3)c2)cc1` (repeat unit) gave a glass transition temperature of 228.50 °C.
Work on `*CC#CCOC(=O)CCCCCCC(=O)O*` (repeat unit) yielded a glass transition temperature of -38.00 °C.
`*Oc1ccc(C(CCCC)(CCCC)c2ccc(OC(*)=O)cc2)cc1` (repeat unit) gave a glass transition temperature of 113.00 °C.
Molecule `*CCCCCCN1C(=O)c2ccc(C(=O)Nc3ccc(S(=O)(=O)c4cccc(NC(=O)c5ccc6c(c5)C(=O)N(*)C6=O)c4)cc3)cc2C1=O` (repeat unit) has a glass transition temperature of 190.00 °C.
Molecule `*/C(=C/c1cc(OC)c(/C=C(\c2ccccc2)c2ccc3cc(*)ccc3c2)cc1OC)c1ccccc1` (repeat unit) has a glass transition temperature of 198.00 °C.
In the case of `*CCCCCCCC(=O)N*` (repeat unit), the glass transition temperature is reported as 37.00 °C.
Work on `*C(*)C(=O)OCC` (repeat unit) yielded a glass transition temperature of 13.50 °C.
For `*c1ccc(S(=O)(=O)c2ccc(Oc3ccc(-c4nn(*)c(=O)c5ccccc45)c(F)c3)cc2)cc1` (repeat unit), the glass transition temperature was 283.00 °C.
For `*O[Si](*)(C)CCCCCn1c2ccccc2c2ccccc21` (repeat unit), the glass transition temperature was 7.00 °C.
Molecule `*CC(*)OCCCCCCCOc1ccc(-c2ccc(C#N)cc2)cc1` (repeat unit) has a glass transition temperature of 13.00 °C.
Molecule `*c1ccc(Oc2ccc(Oc3ccc(-c4nnc(*)c5c(-c6ccc(F)cc6)c(-c6ccc(F)cc6)c(-c6ccc(F)cc6)c(-c6ccc(F)cc6)c45)cc3)cc2)cc1` (repeat unit) has a glass transition temperature of 309.00 °C.
`*C1C(=O)N(c2ccc(O[Si](C)(C)C(C)(C)C)cc2)C(=O)C1*` (repeat unit) showed a glass transition temperature of 169.00 °C.
`*/C=C/c1cc(OCCC(C)CCCC(C)C)c(*)cc1OC` (repeat unit) showed a glass transition temperature of 54.50 °C.
